US5283236A, “Systemic delivery of polypeptides through the eye” (Orbon Corporation, priority 1992, dated 1994)
Each block holds one compound with its values, some of them ahead of it.

Columns and labels:
[1] = test system: normal rabbits; assay: Blood glucose after insulin eye drops with absorption enhancers; format: in vivo, New Zealand white female rabbits; conditions: eye drops: 1% insulin plus 1% absorption enhancer (Control: no enhancer)
[2] = Insulin absorption from eye drops with absorption enhancers (blood insulin); format: in vivo, New Zealand white female rabbits; conditions: eye drops: 1% insulin plus 1% absorption enhancer (Control: no enhancer)
[3] = Penetration of insulin into eyeballs with absorption enhancers; format: in vivo, rabbits; conditions: 1% insulin plus 1% enhancer (Control: 1% insulin only)
[4] = rabbit, in vivo
Description: The concentrations of peptides in the blood were expressed in ng/ml.

[5] = Enkephalin-equivalent remaining in eye tissues at the end of 12 hr experiment; format: in vivo, New Zealand white female rabbits
[6] = Blood enkephalin-equivalent concentration after ocular or i.v. enkephalin; format: in vivo, New Zealand white female rabbits; conditions: enkephalin 50 ug i.v.
[7] = test system: normal rabbits; assay: Blood glucose after ocular or i.v. glucagon in normal rabbits; format: in vivo, New Zealand white female rabbits; conditions: for blood glucose raised to: in 30 min

Compound: C[N+](C)(C)CCCCCCCCCC[N+](C)(C)C [Decamethonium, decamethonium bromide]
% Change in Blood Glucose Concentration [1]: 8%
Blood Glucose Concentration Before [1]: 90 ± 3 mg %
Insulin peak Concentration [2]: 10.8 ± 1.8 ng/mL

Absolute amount of insulin in the eyeball [3]: 200 ng
Compound: C[C@H](CCC(=O)NCC(=O)O)[C@H]1CC[C@H]2[C@@H]3[C@H](O)C[C@@H]4C[C@H](O)CC[C@]4(C)[C@H]3C[C@H](O)[C@]12C [Glycocholate, sodium glycocholate]

LHRH eye drop concentration sufficient to reach therapeutic effective blood concentration [4]: ≥ 0.005%
Tx of blood LHRH ([4]; iv): approximately 15 min
Compound: CC(C)C[C@H](NC(=O)CNC(=O)[C@H](Cc1ccc(O)cc1)NC(=O)[C@H](CO)NC(=O)[C@H](Cc1c[nH]c2ccccc12)NC(=O)[C@H](Cc1cnc[nH]1)NC(=O)[C@@H]1CCC(=O)N1)C(=O)N[C@@H](CCCNC(=N)N)C(=O)N1CCC[C@H]1C(=O)NCC(N)=O [LHRH, luteinizing hormone-releasing hormone]

TRH eye drop concentration giving a therapeutic blood concentration [4]: ≥ 0.0025%
Tx of blood TRH ([4]; iv): approximately 10 min
Compound: NC(=O)[C@@H]1CCCN1C(=O)[C@H](Cc1cnc[nH]1)NC(=O)[C@@H]1CCC(=O)N1 [TRH, Thyrotrophin-releasing hormone]

Compound: CC(C)C[C@H](NC(=O)[C@H](Cc1ccccc1)NC(=O)CNC(=O)CNC(=O)[C@@H](N)Cc1ccc(O)cc1)C(=O)O [enkephalin, Leucine-enkephalin (5-L-leucine)]
Residual amount of enkephalin remaining in tissues, % of instilled, Total ([5]; 1% enkephalin): 0.1713%
Residual amount of enkephalin remaining in tissues, Amount, Total ([5]; 1% enkephalin): 428.28 ng
Residual amount of enkephalin remaining in tissues, % of instilled, Total ([5]; 5% enkephalin): 0.1136%
Residual amount of enkephalin remaining in tissues, % of instilled, Total ([5]; […] enkephalin): 0.3019%
Tx of decline of blood concentration [6]: less than 30 min
lowest blood concentration ([6]; in 5 hrs): 22 ng/mL

Compound: Glucagon
blood glucose peak ([7]; 50 ug glucagon i.v., peaked at 30 min): 235 mg %
blood glucose raised to ([7]; 25 ul of 0.2% glucagon instilled): 204 mg %
blood glucose came down to ([7]; 25 ul of 0.2% glucagon instilled, in 2 hrs): 116 mg %
blood glucose raised to ([7]; 25 ul of 1% glucagon instilled): 248 mg %
blood glucose declined to ([7]; 25 ul of 5% glucagon instilled, end of 6 hr): 160 mg %

Compound: polyoxyethylene-9-lauryl ether [BL-9]
% Change in Blood Glucose Concentration [1]: 42%
Blood Glucose Concentration After [1]: 56 mg %
Blood Glucose Concentration Before [1]: 97 mg %
